Assay results as given in patent publication US10233205B2, “Magnetic resonance imaging contrast agent capable of detecting hydrogen peroxide and reducing reactive oxygen species” (Auburn University, priority 2015, dated 2019).

Key:
[1] = T1-weighted relaxivity (r1) on 3 T clinical MRI scanner; format: physicochemical; conditions: for r1 (T1-weighted relaxivity): no oxidant; for r1 (T1-weighted relaxivity) / r1 after addition of H2O2 / r1, second series of experiments, after H2O2 (oxidized form) / r1, second series of experiments, before H2O2 (reduced form): 50 mM HEPES pH 7.00, 3 T; for r1 (T1-weighted relaxivity) / r1 after addition of H2O2: 25° C.; for r1, second series of experiments, after H2O2 (oxidized form) / r1, second series of experiments, before H2O2 (reduced form): 298 K
Text: All MRI data were collected at the Auburn University MRI Research Center (Auburn, Ala.) on a Siemens Verio open-bore 3-T MRI clinical scanner. A 15-channel knee coil was used to simultaneously image 12-26 samples. An inversion recovery (IR) sequence was used that featured a non-selective adiabatic inversion pulse followed by a slice-selective gradient recalled echo (GRE) readout after a delay period corresponding to the inversion time (TI).^1-2 The GRE was a saturation readout, such that only one line of k-space was acquired per repetition time (TR). This method was selected to maximize both the signal strength and the accuracy of the T1 estimates. Specific imaging parameters were as follows: TR was set to 4 s, TI was varied from 4.8 to 2500 ms over 37 steps, the echo time (TE) was set to 3.6 ms, the flip angle equaled 90°, averages=1, slice thickness=5 mm, field of view=140×140 mm, matrix=128×128, resulting in a pixel size of 1.1×1.1×5.0 mm. All samples were run in 50 mM solutions of HEPES in water, buffered to pH 7.0 and kept at […]. The manganese content was systematically varied from 0.10 to 1.00 mM. The inverses of the T1 values were plotted versus the concentration of Mn(II) to obtain r1 values. All reported r1 values are averages from the results of two separate series of experiments. Each series of experiments used a different batch of 1.
Image analysis was performed using custom Matlab programs (Mathworks, Natick, Mass.). The initial TI=4.8 ms image served as a baseline to determine circular region of interest (ROI) boundaries for each sample; from these, the mean pixel magnitudes for each ROI were calculated. For each of the 36 subsequent TI images, the same ROI boundaries were applied and the mean pixel magnitude calculations were repeated. This gave consistent ROI spatial definitions and a corresponding time course of magnitudes for each of the samples over all the TI time points. Each sample's complex phase was used to correct the magnitude polarity to produce a complete exponential T1 inversion recovery curve. The Nelder-Mead simplex algorithm^3 was applied to each sample's exponential curve to estimate its corresponding T1 value.
(§1) For the relaxivity measurements, all samples were run in 298 K aqueous solutions containing 50 mM HEPES buffered to pH 7.00, using a 3 T field provided by a clinical MRI scanner. The data were fit to the indicated linear equations; the y-intercepts were within error of 1/T1 measurements associated with two control samples that contained no Mn(II): (A) 10 mM H2O2 in 50 mM HEPES buffer and (B) pure 50 mM HEPES buffer (both 0.46 s^−1).
as §1, with “All” for “For the relaxivity measurements, all”, “s^−1). The oxidation of 1 by 2,3-dichloro-5,6-dicyano-1,4-benzoquinone (DDQ) occurred in CH2Cl2. After the reaction occurred, the 2,3-dichloro-5,6-dicyanoquinol product was removed via filtration, the CH2Cl2 was removed, and the sample was dissolve in HEPES buffer for MRI analysis. The other oxidation reactions occurred entirely in HEPES buffer.” for “s^−1).”
The capability of 3 to serve as a MRI contrast agent was assessed with a 3 T clinical MRI scanner. All samples were run in 298 K aqueous solutions containing 50 mM HEPES buffered to pH 7.00, using a 3 T field provided by a clinical MRI scanner. All samples were prepared under air. The oxidized samples were prepared by directly adding H2O2 to solutions of 3 in aqueous solutions buffered to pH 7.0. The oxidation reactions were allowed to proceed for 30 min at 298 K before the T1 measurements were taken. […]

H9c2 cells = test: Cytotoxicity, CyQUANT cell number; format: cell-based; set-up: dose tolerated by H9c2 cells: unit not given here
Experimental: H9c2 cells were obtained from the American Tissue Type Collection (Manassas, Va., USA) and grown at 37° C. with 95% humidity and 5% CO2. Cells were grown in Dulbecco's modified eagles medium (DMEM) supplemented with 10% fetal bovine serum. Experiments were performed at 70-80% confluence. All experiments were performed in DMEM in the absence of fetal bovine serum. To determine the cytotoxic effects of 1 and 2, the H9c2 cells were exposed to increasing concentrations of these reagents or their vehicle in DMEM for either 4 or 24 h. The cell number was assessed using the CyQUANT Cell Proliferation Assay Kit (Life Technologies Corporation, Carlsbad, Calif.) per manufacturer's instructions. Cell number was expressed as a percentage of that measured for the vehicle-treated cells. Values are expressed as mean and SEM and represent three experiments performed in triplicate.
The toxicity of 3 was tested using H9c2 cells in order to facilitate comparison to that of 1. H9c2 cells were obtained from the American Tissue Type Collection (Manassas, Va., USA) and grown at 37° C. with 95% humidity and 5% CO2. Cells were grown in Dulbecco's modified eagles medium (DMEM) supplemented with 10% fetal bovine serum. Experiments were performed at 70-80% confluence. To determine the cytotoxic effects of 3, H9c2 cells were exposed to increasing concentrations of 3 ([…]) or its vehicle in DMEM for 4 or 24 hr. Cell number was assessed using the CyQUANT Cell Proliferation Assay Kit (Life Technologies Corporation, Carlsbad, Calif.) per manufacturer's instructions. Cell number was expressed as percentage of the vehicle-treated cells. Values are expressed as mean and standard deviation and represent 2-4 experiments performed in triplicate. The bars marked with an * display a significant difference from the vehicle-treated cell number for corresponding time period (p<0.05).

Compound	r1 (T1-weighted relaxivity) [1]	dose tolerated by H9c2 cells (H9c2 cells; 4 h)	r1 after addition of H2O2 ([1]; 10 mM H2O2)	r1, second series of experiments, after H2O2 (oxidized form) ([1]; 10 mM H2O2)	r1, second series of experiments, before H2O2 (reduced form) [1]	H9c2 cells surviving (H9c2 cells; 10 μM, 24 h)	concentration without cell death / within error of control (H9c2 cells; 4 h)	concentration without impact on H9c2 viability (H9c2 cells; 24 h)	dose tolerated by H9c2 cells (H9c2 cells; 24 h)	increase of relaxivity upon exposure to H2O2 [1]	r1 response to H2O2 ([1]; 10 mM H2O2)
CC#N.Cc1ccc(O)c(CN(CCN(Cc2ccccn2)Cc2ccccn2)Cc2ccccn2)c1.[Mn+2].[O-][Cl+3]([O-])([O-])[O-].[O-][Cl+3]([O-])([O-])[O-] [Complex 2, reference compound]	4.39 mM⁻¹ s⁻¹	10									
CC#N.O=S(=O)([O-])C(F)(F)F.O=S(=O)([O-])C(F)(F)F.[Mn+2].[O-]c1ccc(O)cc1CN(CCN(Cc1ccccn1)Cc1ccccn1)Cc1ccccn1 [Complex 1, Acetonitrilo(N-(2,5-dihydroxy-benzyl)-N,N′,N′-tris(2-pyridinylmethyl)-1,2-ethanediamine)manganese(II) triflate]	4.73 mM⁻¹ s⁻¹	10	5.30 mM⁻¹ s⁻¹	5.30 mM⁻¹ s⁻¹	4.73 mM⁻¹ s⁻¹	less than 50%	10 µM	1.0 µM	1.0		
cis-Dibromo(N,N′-bis(2,5-dihydroxybenzyl)-N,N′-bis(2-pyridinylmethyl)-1,2-ethanediamine)manganese(II) [Complex 3]	5.46 (+0.19) mM^−1 s^−1		7.17 (+0.15) mM^−1 s^−1	7.32 mM⁻¹ s⁻¹	5.64 mM⁻¹ s⁻¹		50 µM	10 µM		31%	1.71 mM⁻¹ s⁻¹
